Test results from patent publication US12590071B2, “Hydrazone derivative in which terminal amine group is substituted with aryl group or heteroaryl group, and use thereof” (KOREA INSTITUTE OF SCIENCE AND TECHNOLOGY, priority 2018, dated 2026).

How the values were obtained:
[1] = Liver microsomal stability (human); type: in vitro ADME; settings: amount of substrate remaining; 1 μM, 0.25 mg/mL microsomes, 37° C., 30 minutes
Description: (§1) The liver microsomal stability of the compounds prepared according to Examples 1 to 171 was confirmed. Specifically, four kinds of liver microsomes (human, dog, rat, and mouse, each 0.25 mg/mL), a 0.1 M phosphate buffer solution (pH 7.4), and the compounds with a concentration of 1 μM were added, respectively. Then the mixture was cultured in advance at 37° C. for 5 minutes, and then further cultured at 37° C. for 30 minutes together with the addition of an NADPH generation system solution. Thereafter, a reaction was terminated by adding an acetonitrile solution containing an internal standard material (chloropropamide), centrifugal separation (14,000 rpm, 4° C.) was performed for 5 minutes, and then a supernatant was injected into an LC-MS/MS system. The substrate drugs were analyzed to evaluate the metabolic stability for 8 kinds of compounds.
(§2) The amount of substrate remaining through the reaction was analyzed using the Shimadzu Nexera XR system and TSQ vantage (Thermo). Kinetex XB-C18 (2.1 mm×100 mm, 2.6 μm, particle size; Phenomenex, USA) was used in an HPLC column, and (A) distilled water containing 0.1% formic acid and (B) acetonitrile containing 0.1% formic acid were used as mobile phases. Analyst software (version 1.6.3) and Xcalibur (version 1.6.1) were used for data analysis.

[2] = Liver microsomal stability (mouse); type: in vitro ADME; settings: amount of substrate remaining; 1 μM, 0.25 mg/mL microsomes, 37° C., 30 minutes
Description: as §1, §2

[3] = Liver microsomal stability (dog); type: in vitro ADME; settings: amount of substrate remaining; 1 μM, 0.25 mg/mL microsomes, 37° C., 30 minutes
Description: as §1, §2

[4] = target: T1, tau protein (Homo sapiens, UniProt P10636); test: Tau protein aggregation inhibition in tau-BiFC cell model; type: cell-based; settings: tau-BiFC cells treated together with Forskolin, 48 hours
T1 construct: expressed in transfected cells
T1 sequence (P10636 2-441 isoform P10636-8 limits assumed): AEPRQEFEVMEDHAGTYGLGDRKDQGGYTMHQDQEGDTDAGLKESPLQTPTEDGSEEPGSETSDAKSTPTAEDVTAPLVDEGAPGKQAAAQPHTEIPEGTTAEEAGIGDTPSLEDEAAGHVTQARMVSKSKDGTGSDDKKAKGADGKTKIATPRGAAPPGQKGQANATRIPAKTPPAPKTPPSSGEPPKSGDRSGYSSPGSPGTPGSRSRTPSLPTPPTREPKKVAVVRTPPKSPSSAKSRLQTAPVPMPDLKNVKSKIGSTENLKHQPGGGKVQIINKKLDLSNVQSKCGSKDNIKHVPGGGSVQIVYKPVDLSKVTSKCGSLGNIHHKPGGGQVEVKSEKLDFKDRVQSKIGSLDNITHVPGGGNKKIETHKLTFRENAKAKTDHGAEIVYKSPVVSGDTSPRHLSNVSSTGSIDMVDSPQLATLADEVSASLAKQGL
Method in brief: (§3)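 Tau-BiFC cells co-treated 48 h with Forskolin ([…]) and compound at 0.03–30 μM. BiFC fluorescence quantified by imaging, IC50 by nonlinear regression; cytotoxicity as Hoechst-stained nuclei count relative to Forskolin-only wells (100% survival).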

[5] = target: T2, CYP2C19 (Homo sapiens, UniProt P33261); test: Inhibition of CYP coenzyme activity in human liver microsomes; type: in vitro ADME; settings: compound 10 PM (so in the source); human liver microsomes 0.25 mg/mL; substrate S-mephenytoin; 15 minutes
T2 construct: human liver microsomes (0.25 mg/mL); from tissue; host or cells: human liver microsomes
T2 sequence (P33261 whole entry): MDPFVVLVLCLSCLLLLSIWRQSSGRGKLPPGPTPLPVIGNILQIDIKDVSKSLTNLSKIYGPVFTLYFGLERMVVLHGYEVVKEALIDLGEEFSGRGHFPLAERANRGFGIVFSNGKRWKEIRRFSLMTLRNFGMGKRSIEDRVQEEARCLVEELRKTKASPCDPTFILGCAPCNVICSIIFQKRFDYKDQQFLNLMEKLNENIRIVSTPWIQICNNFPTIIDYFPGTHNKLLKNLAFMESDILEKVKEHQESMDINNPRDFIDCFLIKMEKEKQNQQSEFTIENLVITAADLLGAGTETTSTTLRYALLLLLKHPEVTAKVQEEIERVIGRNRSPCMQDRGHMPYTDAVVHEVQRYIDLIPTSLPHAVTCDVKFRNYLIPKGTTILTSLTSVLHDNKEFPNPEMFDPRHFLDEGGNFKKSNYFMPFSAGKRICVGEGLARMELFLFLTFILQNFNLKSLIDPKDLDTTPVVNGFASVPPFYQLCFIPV
Description: (§4) 5 The inhibition effects of CYP coenzyme activity by the compounds prepared according to Examples 1 to 171 was confirmed. Specifically, human liver microsomes (0.25 mg/mL), a 0.1 M phosphate buffer solution (pH 7.4), substrate drug cocktails (phenacetin 50 μM, diclofenac 10 μM, S-mephenytoin 100 μM, dextromethorphan 5 μM, and midazolam 2.5 μM) of five kinds of drug metabolism enzymes, and the compounds with a concentration of 0 μM or 10 PM were added, respectively. Then the mixture was cultured in advance at 37° C. for 5 minutes, and then further cultured at 37° C. for 15 minutes together with the addition of an NADPH generation system solution. Thereafter, a reaction was terminated by adding an acetonitrile solution containing an internal standard material (terfenadine), centrifugal separation (14,000 rpm, 4° C.) was performed for 5 minutes, and then a supernatant was injected into an LC-MS/MS system. Metabolites of the substrate drugs were simultaneously analyzed to evaluate the drug metabolism inhibition ability.
(§5) Metabolites of each CYP coenzyme indicator drug generated through the reaction were analyzed using the Shimadzu Nexera XR system and TSQ vantage (Thermo). Kinetex C18 (2.1 mm×100 mm, 2.6 μm, particle size; Phenomenex, USA) was used in an HPLC column, and (A) distilled water containing 0.1% formic acid and (B) acetonitrile containing 0.1% formic acid were used as mobile phases, and the gradient program shown in Table 2 was applied.
(§6) The generated metabolites were quantified using an MRM (multiple reaction monitoring) quantification mode, and Xcalibur (version 1.6.1) was used for data analysis.

[6] = target: T3, CYP1A2 (Homo sapiens, UniProt P05177); test: as above; type: in vitro ADME; settings: compound 10 PM (so in the source); human liver microsomes 0.25 mg/mL; substrate phenacetin; 15 minutes
T3 construct: human liver microsomes (0.25 mg/mL); from tissue; host or cells: human liver microsomes
T3 sequence (P05177 1-516): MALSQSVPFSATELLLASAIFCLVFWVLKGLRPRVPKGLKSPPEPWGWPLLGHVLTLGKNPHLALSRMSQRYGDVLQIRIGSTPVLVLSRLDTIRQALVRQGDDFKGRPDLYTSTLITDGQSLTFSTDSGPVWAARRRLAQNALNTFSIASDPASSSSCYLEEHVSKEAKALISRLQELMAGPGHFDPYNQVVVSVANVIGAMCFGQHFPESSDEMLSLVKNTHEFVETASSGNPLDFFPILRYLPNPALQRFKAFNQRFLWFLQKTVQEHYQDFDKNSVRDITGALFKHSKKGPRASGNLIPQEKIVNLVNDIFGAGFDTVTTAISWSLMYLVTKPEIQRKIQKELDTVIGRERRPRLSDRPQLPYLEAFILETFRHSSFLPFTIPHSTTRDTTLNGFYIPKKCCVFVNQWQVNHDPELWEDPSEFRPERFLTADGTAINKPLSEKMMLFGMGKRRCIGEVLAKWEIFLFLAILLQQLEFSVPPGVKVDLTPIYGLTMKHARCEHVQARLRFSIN
Description: as §4, §5, §6

[7] = target: T4, CYP2D6 (Homo sapiens, UniProt P10635); test: as above; type: in vitro ADME; settings: compound 10 PM (so in the source); human liver microsomes 0.25 mg/mL; substrate dextromethorphan; 15 minutes
T4 construct: human liver microsomes (0.25 mg/mL); from tissue; host or cells: human liver microsomes
T4 sequence (P10635 whole entry): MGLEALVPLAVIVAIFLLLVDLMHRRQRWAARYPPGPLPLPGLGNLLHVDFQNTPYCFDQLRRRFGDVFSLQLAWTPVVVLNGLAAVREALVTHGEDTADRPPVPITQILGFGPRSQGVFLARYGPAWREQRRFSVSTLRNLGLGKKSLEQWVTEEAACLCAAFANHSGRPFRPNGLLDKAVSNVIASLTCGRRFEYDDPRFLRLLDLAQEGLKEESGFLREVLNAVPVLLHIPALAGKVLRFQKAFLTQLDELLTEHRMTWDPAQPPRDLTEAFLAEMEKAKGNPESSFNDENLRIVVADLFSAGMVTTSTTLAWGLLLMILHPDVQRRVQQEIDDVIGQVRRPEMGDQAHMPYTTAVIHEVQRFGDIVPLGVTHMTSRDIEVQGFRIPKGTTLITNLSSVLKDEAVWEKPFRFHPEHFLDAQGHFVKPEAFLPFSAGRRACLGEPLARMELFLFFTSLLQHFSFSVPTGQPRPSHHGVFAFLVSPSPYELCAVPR
Description: as §4, §5, §6

[8] = target: T5, CYP2C9 (Homo sapiens, UniProt P11712); test: as above; type: in vitro ADME; settings: compound 10 PM (so in the source); human liver microsomes 0.25 mg/mL; substrate diclofenac; 15 minutes
T5 construct: human liver microsomes (0.25 mg/mL); from tissue; host or cells: human liver microsomes
T5 sequence (P11712 whole entry): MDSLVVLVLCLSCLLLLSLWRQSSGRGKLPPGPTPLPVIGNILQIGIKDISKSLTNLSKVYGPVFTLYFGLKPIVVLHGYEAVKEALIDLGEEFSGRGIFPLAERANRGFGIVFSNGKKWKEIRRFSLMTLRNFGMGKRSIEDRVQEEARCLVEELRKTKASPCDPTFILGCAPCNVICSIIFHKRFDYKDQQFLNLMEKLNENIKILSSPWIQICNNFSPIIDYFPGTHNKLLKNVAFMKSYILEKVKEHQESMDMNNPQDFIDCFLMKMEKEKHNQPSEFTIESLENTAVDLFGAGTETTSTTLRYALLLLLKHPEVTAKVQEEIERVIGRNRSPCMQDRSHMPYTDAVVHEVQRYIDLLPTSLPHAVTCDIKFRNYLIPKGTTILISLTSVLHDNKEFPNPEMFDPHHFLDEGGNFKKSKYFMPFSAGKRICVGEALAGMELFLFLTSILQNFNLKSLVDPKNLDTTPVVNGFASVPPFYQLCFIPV
Description: as §4, §5, §6

[9] = target: T6, CYP3A4 (Homo sapiens, UniProt P08684); test: as above; type: in vitro ADME; set-up: scale not given here; settings: compound 10 PM (so in the source); human liver microsomes 0.25 mg/mL; substrate midazolam; 15 minutes
T6 construct: human liver microsomes (0.25 mg/mL); from tissue; host or cells: human liver microsomes
T6 sequence (P08684 whole entry): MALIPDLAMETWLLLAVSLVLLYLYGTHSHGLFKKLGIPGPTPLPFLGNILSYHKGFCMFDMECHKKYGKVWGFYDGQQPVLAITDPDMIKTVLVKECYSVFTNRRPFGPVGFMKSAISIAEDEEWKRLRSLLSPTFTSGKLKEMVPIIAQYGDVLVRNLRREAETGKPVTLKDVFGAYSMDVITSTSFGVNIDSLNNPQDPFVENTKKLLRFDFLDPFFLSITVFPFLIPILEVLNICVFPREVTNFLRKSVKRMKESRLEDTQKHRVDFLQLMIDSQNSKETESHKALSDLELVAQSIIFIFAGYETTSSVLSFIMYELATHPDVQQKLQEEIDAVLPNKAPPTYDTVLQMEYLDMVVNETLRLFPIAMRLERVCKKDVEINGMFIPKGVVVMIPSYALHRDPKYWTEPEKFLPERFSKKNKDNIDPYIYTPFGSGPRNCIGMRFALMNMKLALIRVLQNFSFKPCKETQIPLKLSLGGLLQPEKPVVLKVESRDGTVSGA
Description: as §4, §5, §6

[10] = Liver microsomal stability (rat); type: in vitro ADME; settings: amount of substrate remaining; 1 μM, 0.25 mg/mL microsomes, 37° C., 30 minutes
Description: as §1, §2

[11] = system: Tau-BiFC cells; test: Cytotoxicity (cell survival rate) in tau-BiFC cells; settings: group treated with Forskolin alone = 100%
Method in brief: as §3

Row | Compound | liver microsomal stability, Human (%) [1] [%] | liver microsomal stability, Mouse (%) [2] [%] | liver microsomal stability, Dog (%) [3] [%] | IC50 [4] [nM] | inhibition effects of CYP coenzyme activity, CYP2C19 [5] | inhibition effects of CYP coenzyme activity, CYP1A2 [6] | inhibition effects of CYP coenzyme activity, CYP2D6 [7] | inhibition effects of CYP coenzyme activity, CYP2C9 [8] | inhibition effects of CYP coenzyme activity, CYP3A4 [9] | liver microsomal stability, Rat (%) [10] [%] | Cell survival rate (% @ 10 μM) [11] [%]
1 | N#CC(C#N)=NNc1cnc2[nH]ccc2c1 [Compound 72, (1H-pyrrolo[2,3-b]pyridin-5-yl)carbonohydrazonoyl dicyanide] | 86.3 | 58.6 | 84.8 | 35 | 97.8 | 85.8 | 98.9 | 88.7 | >100 | 72.8 | 89.5
2 | N#CC(C#N)=NNc1cnc2[nH]cc(Cl)c2c1 [Compound 83, (3-chloro-1H-pyrrolo[2,3-b]pyridin-5-yl)carbonohydrazonoyl dicyanide] | 64.1 | 11 | 31.9 | 300 | 96.4 | 47.7 | 91.1 | 51 | 86.4 | 62.2 | 98
3 | N#CC(C#N)=NNc1ccc2nc(NC(=O)c3ccccc3O)sc2c1 [Compound 87, (2-(2-hydroxybenzamido)benzo[d]thiazol-6-yl)carbonohydrazonoyl dicyanide] | 82.1 | 83.1 | 80.6 | 400 | 86.4 | 77 | 83.6 | 53.5 | 62.7 | 73.9 | 75.3
4 | N#CC(C#N)=NNc1ccc2nc(NC(=O)c3cnccn3)sc2c1 [Compound 92, (2-(pyrazine-2-carboxamido)benzo[d]thiazol-6-yl)carbonohydrazonoyl dicyanide] | 74.6 | 51.9 | 74.7 | 240 | 90.5 | 64.1 | 99.1 | 46.8 | 85.5 | 72.7 | 119.5
5 | Cc1cncc(-c2nc3ccc(NN=C(C#N)C#N)cc3s2)c1 [Compound 110, (2-(5-methylpyridin-3-yl)benzo[d]thiazol-6-yl)carbonohydrazonoyl dicyanide] | 55 | 70.8 | 60.2 | 760 | 51.3 | 55 | 70.8 | 60.2 | 55 | 51.3 | 74.6
6 | CN(C)c1ccc(-c2ccc(NN=C(C#N)C#N)cc2)cc1 [Compound 151, (4′-(dimethylamino)biphenyl-4-yl)carbohydrazonoyl dicyanide] | 94.4 | 94.6 | 83.6 | 650 | 85.2 | 94.4 | 94.6 | 83.6 | 94.4 | 85.2 | 69.5
